Data published in publication PMC11452715, “Pharmacokinetic and pharmacodynamic evaluation of various vasopressin doses and routes of administration in a neonatal piglet model” (Scientific Reports, 2024).

Tests used:
[1] = system: adults with out-of-hospital cardiac arrest; parameters: method as in PMID 14711909; settings: adults with asystolic arrest, cited from earlier work; for rate of survival to hospital admission: p = 0.02; for rate of survival to discharge: p = 0.04
Excerpt: (§1) Vasopressin, an antidiuretic hormone, might be an alternative to epinephrine, as its efficacy is not impaired during metabolic or respiratory acidosis[3],[4],[9].

[2] = system: patients < 18 years of age; parameters: method as in PMID 21926666; settings: vasopressin (0.8 IU/kg) after an initial epinephrine dose (n = 10) vs ≥ 2 doses of epinephrine; cited from earlier work
Excerpt: as §1

pediatric patients = settings: 0.4IU/kg/dose IV as rescue therapy; cited from earlier work
Excerpt: Vasopressin, an antidiuretic hormone, might be an alternative to epinephrine, as its efficacy is not impaired during metabolic or respiratory acidosis[3],[4],[9]. […] Similarly, in a case series of four pediatric patients’ vasopressin at 0.4IU/kg/dose IV administered as rescue thera ...

neonatal piglets = assay: Hemodynamic and cardiac function parameters after vasopressin administration in healthy neonatal piglets; type: in vivo, piglet; settings: for ejection fraction / cardiac output: one minute after drug administration, n = 5
Excerpt: Piglets were instrumented as previously described with modifications[15]–[17]. Following the induction of anaesthesia using isoflurane, piglets were intubated via a tracheostomy, and pressure-controlled ventilation (Sechrist Infant Ventilator Model IV-100; Sechrist Industries, Anaheim, California) was commenced at a respiratory rate of 16–20 breaths/min and pressure of 20/5 cmH2O. Oxygen saturation was kept within 90–100%, glucose level and hydration was maintained with an intravenous infusion of 5% dextrose at 10 mL/kg/hr. During the experiment anaesthesia was maintained with intravenous propofol 5–10 mg/kg/hr and morphine 0.1 mg/kg/hr. Additional doses of propofol (1–2 mg/kg) and morphine (0.05–0.1 mg/kg) were also given as needed. The piglet’s body temperature was maintained within a normal porcine temperature range of 38.5–39.5 °C using an overhead warmer and a heating pad.
A 5-French Argyle® (Klein-Baker Medical Inc. San Antonio, TX) double-lumen catheter was inserted via the right femoral vein for administration of fluids and medications. A 5-French Argyle® single-lumen catheter was inserted above the right renal artery via the femoral artery for continuous arterial blood pressure monitoring in addition to arterial blood gas measurements. The right common carotid artery was also exposed and encircled with a real-time ultrasonic flow probe (2 mm; Transonic Systems Inc., Ithica, NY) to measure cerebral blood flow[15]–[17]. A Millar® catheter (MPVS Ultra1, ADInstruments, Houston, TX) was inserted into the left ventricle via the left common carotid artery for continuous measurement of stroke volume, ejection fraction, end-diastolic and -systolic volumes, left ventricular pressure, and left ventricular contractile function (dp/dtmax, dp/dtmin)^19,20.
Piglets were placed in supine position and allowed to recover from surgical instrumentation until baseline hemodynamic measures were stable (minimum of one hour). Ventilator rate was adjusted to keep the partial arterial CO2 between 35 and 45 mmHg as determined by periodic arterial blood gas analysis. Mean systemic arterial pressure (MAP), systemic systolic arterial pressure, heart rate, and percutaneous oxygen saturation were continuously measured and recorded throughout the experiment with a Hewlett Packard 78833B monitor (Hewlett Packard Co., Palo Alto, CA)[15]–[17].
(§2) Piglets were randomized into four routes and various vasopressin doses: (1) IV vasopressin (0.4IU/kg; n = 5, control), (2) IO vasopressin (n = 5/dose; 0.2IU/kg, 0.4IU/kg, or 0.8IU/kg), (3) ETT vasopressin (n = 5/dose; 4IU/kg, 8IU/kg, or 16IU/kg), (4) IN vasopressin (n = 3/dose; 8IU/kg, 16IU/kg, or 32IU/kg). In all groups, a 3mL saline bolus was administered immediately after the vasopressin dose[20],[21].
(§3) Preliminary tests on a few piglets were conducted to determine the optimal ETT vasopressin doses. […] All piglets, regardless of randomization, underwent insertion of an intraosseous needle during surgical instrumentation to ensure each piglet underwent similar surgical procedures. Arterial blood was collected before vasopressin administration (baseline), 1, 2, 3, 4, 5, and 10 min after vasopressin administration. Following final collection of blood, piglets were euthanized with an intravenous overdose of sodium pentobarbital (100 mg/kg).
Demographics of study piglets were recorded. Transonic flow probes, heart rate, and pressure transducer outputs, and Millar catheter were digitized and recorded with LabChart® programming software (ADInstruments, Houston, TX). Blood samples were collected and centrifuged at 11,000 rpm for five minutes, plasma was then separated and stored at -80 °C. Concentrations of vasopressin were quantified using commercially available ELISA kits (K049-H1, Arbor Assays, Ann Arbor, Michigan, USA). Analysis of pharmacokinetic parameters was performed with the Non-Compartmental Analysis program of the SimBiology Model Analyzer app within MATLAB (MATLAB ver. R2023b, MathWorks, Natick, MA, USA). […]

[3] = Plasma vasopressin concentrations (ELISA) and non-compartmental pharmacokinetic analysis in neonatal piglets; type: in vivo, piglet; settings: for plasma vasopressin concentrations compared to IV vasopressin / plasma concentrations compared to IV vasopressin / Cmax: ELISA; for Tmax compared to IV vasopressin: p < 0.05; for Cmax: pig, plasma, mean (SD), SD
Method: as §2, §3
Demographics of study piglets were recorded. Transonic flow probes, heart rate, and pressure transducer outputs, and Millar catheter were digitized and recorded with LabChart® programming software (ADInstruments, Houston, TX). Blood samples were collected and centrifuged at 11,000 rpm for five minutes, plasma was then separated and stored at -80 °C. Concentrations of vasopressin were quantified using commercially available ELISA kits (K049-H1, Arbor Assays, Ann Arbor, Michigan, USA). Analysis of pharmacokinetic parameters was performed with the Non-Compartmental Analysis program of the SimBiology Model Analyzer app within MATLAB (MATLAB ver. R2023b, MathWorks, Natick, MA, USA).
The data was tested for normality (Shapiro-Wilk and Kolmogorov-Smirnov test) and compared using ANOVA for repeated measures using Tukey post-test for parametric and Dunn’s test for nonparametric comparisons of continuous variables, and Fisher’s exact test for categorical variables. The data are presented as mean (standard deviation - SD) for normally distributed continuous variables and median (interquartile range - IQR) when the distribution was skewed. P-values are 2-sided and p < 0.05 was considered statistically significant. Statistical analyses were performed with SigmaPlot (Systat Software Inc, San Jose, USA).

[4] = 0.8IU/kg IV vasopressin, four hours after resuscitation; cited from earlier work
Excerpt: This may result from the non-statistically significant lower baseline ejection fraction in 0.4IU/kg IO vasopressin piglets compared to 0.8IU/kg IO vasopressin piglets (Table 1).

[5] = 0.4IU/kg IO vasopressin, vs baseline
[6] = 0.4IU/kg IV vasopressin (control)

CNC[C@H](O)c1ccc(O)c(O)c1 [epinephrine]
rate of survival to hospital admission [1]: 20% | rate of survival to discharge [1]: 2% | 24 h survival [2]: 30%

NC(=O)CC[C@@H]1NC(=O)[C@H](Cc2ccccc2)NC(=O)[C@H](Cc2ccc(O)cc2)NC(=O)[C@@H](N)CSSC[C@@H](C(=O)N2CCC[C@H]2C(=O)N[C@@H](CCCN=C(N)N)C(=O)NCC(N)=O)NC(=O)[C@H](CC(N)=O)NC1=O [vasopressin]
achieved ROSC (pediatric patients): 3/4 | survived > 24 h (pediatric patients): 2/4 | survived to hospital discharge (pediatric patients): 1/4 | time after drug administration for which cardiac output significantly decreased (neonatal piglets; 0.2IU/kg IO vasopressin): one | carotid blood flow compared to IV vasopressin (neonatal piglets; 0.2IU/kg IO vasopressin, for four minutes, vs 0.4IU/kg IV): significantly higher | time for which MAP significantly increased (neonatal piglets; 0.2IU/kg IO vasopressin, vs baseline): two minutes | time post-drug administration for which carotid blood flow was decreased (neonatal piglets; 0.2IU/kg IO vasopressin, comparable to baseline from three to 10 min): two | time after drug administration for which cardiac output significantly decreased (neonatal piglets; 0.4IU/kg IO vasopressin): two | ejection fraction (neonatal piglets; 0.4IU/kg IO vasopressin, p = 0.042 vs IV): 8.4 (7.7–9.8) % | time for which MAP significantly increased (neonatal piglets; [5]): five minutes | time post-drug administration for which carotid blood flow significantly decreased (neonatal piglets; [5]): five | cardiac output (neonatal piglets; [6]): 193.1 (170.3–365.8) mL/kg/min | ejection fraction (neonatal piglets; [6]): 23.3 (22.5–32.6) % | time for which MAP significantly increased (neonatal piglets; 0.4IU/kg IV vasopressin, vs baseline): five minutes | MAP and dP/dT minimum, IV vasopressin compared to all IN vasopressin doses (neonatal piglets; 0.4IU/kg IV vs 8, 16, 32IU/kg IN): significantly higher | time for which MAP significantly increased (neonatal piglets; 0.8IU/kg IO vasopressin, vs baseline): five minutes | dP/dT minimum compared to IV vasopressin (neonatal piglets; 4IU/kg ETT vasopressin vs 0.4IU/kg IV): significantly lower | cardiac output (neonatal piglets; 4IU/kg ETT vasopressin, p = 0.045 vs IV): 466 (394–558) mL/kg/min | hemodynamic response (neonatal piglets; 4IU/kg IN vasopressin, preliminary, doses then increased): lack of hemodynamic response | carotid blood flow, IN vasopressin doses compared to IV vasopressin (neonatal piglets; 8, 16, 32IU/kg IN vs 0.4IU/kg IV): higher | dP/dT minimum compared to IV vasopressin (neonatal piglets; 16IU/kg ETT vasopressin vs 0.4IU/kg IV): significantly lower | heart rate, dP/dT maximum or minimum compared to baseline values or IV vasopressin (neonatal piglets; any IO-administered vasopressin dose (0.2, 0.4, 0.8IU/kg)): no significant changes | changes from baseline in heart rate, carotid blood flow, cardiac output, ejection fraction, stroke volume, dP/dT maximum or minimum (neonatal piglets; any doses within the IN route (8, 16, 32IU/kg)): no changes | changes from baseline in heart rate, carotid blood flow, cardiac output, ejection fraction, stroke volume, dP/dT maximum or minimum (neonatal piglets; any vasopressin dose administered endotracheally (4, 8, 16IU/kg)): no changes from baseline | rate of survival to hospital admission [1]: 29% | rate of survival to discharge [1]: 5% | 24 h survival [2]: 80% | plasma vasopressin concentrations compared to IV vasopressin ([3]; 4IU/kg ETT vasopressin, two minutes after drug administration): significantly lower | plasma vasopressin concentrations compared to IV vasopressin ([3]; 8IU/kg ETT vasopressin, three minutes after drug administration): significantly lower | plasma concentrations compared to IV vasopressin ([3]; 8IU/kg IN vasopressin, 1-10 min): significantly lower plasma concentrations at all measured time points | plasma vasopressin concentrations compared to IV vasopressin ([3]; 16IU/kg ETT vasopressin, five minutes after drug administration): significantly lower | plasma concentrations compared to IV vasopressin ([3]; 16IU/kg IN vasopressin, 1-10 min): significantly lower plasma concentrations at all measured time points | plasma concentrations compared to IV vasopressin ([3]; 32IU/kg IN vasopressin, 10-minutes after drug administration): comparable | Tmax compared to IV vasopressin ([3]; 32IU/kg IN vasopressin): significantly higher | Tmax compared to IV vasopressin ([3]; all ETT vasopressin doses (4, 8, 16IU/kg)): significantly higher | plasma vasopressin concentrations compared to IV vasopressin ([3]; any IO vasopressin dose (0.2, 0.4, or 0.8IU/kg) vs 0.4IU/kg IV): no differences | pharmacokinetic parameters (Cmax, AUC, Tmax, clearance, half-life), IV vs IO ([3]; any IO vasopressin dose vs 0.4IU/kg IV): comparable | Cmax ([3]; endotracheal, 4IU/kg ETT vasopressin, n = 5, p < 0.0001 vs IV): 0.958 ng/mL | Cmax ([3]; inhaled or intranasal, 8IU/kg IN vasopressin, n = 3, p < 0.0001 vs IV): 0.384 ng/mL | Cmax ([3]; inhaled or intranasal, 16IU/kg IN vasopressin, n = 3, p < 0.0001 vs IV): 0.399 ng/mL | Cmax ([3]; 0.4IU/kg IV vasopressin (control), n = 5): 2.25 ng/mL | base excess and lactate concentrations compared to 0.4IU/kg IV vasopressin [4]: significantly higher
